Drawing on paper PMC3579927, “Identification of a Small Molecule That Selectively Inhibits Mouse PC2 over Mouse PC1/3: A Computational and Experimental Study” (PLoS ONE, 2013), this text covers inhibition and Ki for three compounds.

Structures are written as SMILES.

Holding throughout (format): biochemical
The target of assay [1] is T1, prohormone convertase 2 (PC2) (Mus musculus, UniProt P21661).
T1 construct: gene Pcsk2; Recombinant PC2
T1 sequence (P21661 109-637): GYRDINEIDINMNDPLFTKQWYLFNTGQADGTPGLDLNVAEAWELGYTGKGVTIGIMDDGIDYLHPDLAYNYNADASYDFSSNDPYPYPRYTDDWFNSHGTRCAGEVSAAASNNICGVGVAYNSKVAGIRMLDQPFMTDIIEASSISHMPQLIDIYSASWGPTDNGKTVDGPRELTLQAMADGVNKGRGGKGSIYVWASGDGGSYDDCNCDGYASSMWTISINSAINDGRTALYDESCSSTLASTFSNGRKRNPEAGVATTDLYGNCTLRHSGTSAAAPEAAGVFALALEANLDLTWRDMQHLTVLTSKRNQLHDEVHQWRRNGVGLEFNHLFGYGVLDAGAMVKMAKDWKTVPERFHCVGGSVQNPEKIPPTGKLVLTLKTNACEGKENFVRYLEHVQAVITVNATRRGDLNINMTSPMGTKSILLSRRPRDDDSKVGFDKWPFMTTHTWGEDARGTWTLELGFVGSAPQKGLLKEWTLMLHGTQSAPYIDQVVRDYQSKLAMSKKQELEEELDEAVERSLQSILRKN
The experiment in a line: fluorogenic enzyme assay with pERTKR-amc, […] inhibition at […] and […] at […].

Assay [2] has as its target T2, prohormone convertase 1/3 (PC1/3) (Mus musculus, UniProt P63239).
T2 construct: gene Pcsk1
T2 sequence (P63239 111-753): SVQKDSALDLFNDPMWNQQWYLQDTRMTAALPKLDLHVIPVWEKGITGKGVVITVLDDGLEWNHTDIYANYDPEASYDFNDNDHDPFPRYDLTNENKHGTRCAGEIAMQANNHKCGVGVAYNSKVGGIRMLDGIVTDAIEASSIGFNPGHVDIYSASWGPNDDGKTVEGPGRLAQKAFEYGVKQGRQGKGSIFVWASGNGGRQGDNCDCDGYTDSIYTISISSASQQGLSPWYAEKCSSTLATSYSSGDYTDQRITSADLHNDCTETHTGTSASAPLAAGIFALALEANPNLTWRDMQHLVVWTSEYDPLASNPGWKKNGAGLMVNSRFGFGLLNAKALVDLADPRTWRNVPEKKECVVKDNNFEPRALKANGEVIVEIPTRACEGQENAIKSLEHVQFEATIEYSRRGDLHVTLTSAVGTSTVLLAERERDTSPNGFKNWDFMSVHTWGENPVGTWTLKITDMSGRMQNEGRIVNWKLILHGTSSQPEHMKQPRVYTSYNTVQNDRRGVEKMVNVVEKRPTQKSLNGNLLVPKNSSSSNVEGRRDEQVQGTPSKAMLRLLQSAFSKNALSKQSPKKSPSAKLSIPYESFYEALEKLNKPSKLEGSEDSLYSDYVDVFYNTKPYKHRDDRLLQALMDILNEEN
Briefly: enzyme assay, stimulation of activity at […].

The target in assay [3] is T1, prohormone convertase 2 (PC2). Briefly: fluorogenic enzyme assay, stimulation of activity at […]. As to conditions: read-out: % inhibition at 50 μM (negative = stimulation).
The target is the same in assay [4]. The experiment in a line: fluorogenic enzyme assay with pERTKR-amc, IC50 and inhibition kinetics.

Consider `CCOC(=O)C(=CN/N=c1/cc[nH]c2cc(Cl)ccc12)C(=O)OCC` [BTB03195], for which the inhibition (as a rule, the drop in the measured response relative to a control, in per cent) at 50 µM was 71% in assay [1] and -41% in assay [2].
For `NCCCN=c1ccc2c3c1c(O)c1c(O)ccc(=O)c1c3[nH]n2CCNCCO` [JFD02062], the inhibition at 50 µM in assay [3] was -60%.
As to `OC[C@@H](O)[C@H](O)[C@H](O)[C@@H](O)[C@@H]1NCCS1` [RJC00847], in assay [4], the affinity, expressed as Ki, was 690 ± 80 nM.
